Source: patent publication US20240165196A1, “Beta-Lactamase Inhibitors” (VIB VZW, priority 2021, published 2024)

How the values were obtained:
Format in all cases: cell-based
[1] = system: E. coli clinical isolate, β-lactamase SHV-12; TEM-ESBL; assay: MIC of ampicillin without/with 30 μg/mL TEM3.2, clinical isolates; conditions: isolate 2017 Germany, RTI, Bronchi; ampicillin alone
Experimental: (§1) Moreover, the core sequence of peptide TEM3.0 also occurs in the structurally related SHV β-lactamase (FIG. 2E). Although the C-terminal extension residues H and N have been replaced with physicochemically similar R and Q, respectively (FIG. 2H). […] To quantify the synergy between these four peptides and penicillin G, we performed a so-called checkerboard assay, which allows to compare the activity of two test compounds co-incubated (here peptide and a beta-lactam antibiotic), to their individual activities in isolation. The result from the assay is quantified as the Fractional Inhibitory Concentration Index (FICI), and it is generally accepted that values below 0.5 indicate synergistic effects between the compounds. As a control, we generated a peptide using the same design, but based on a previously identified APR from the β-galactosidase enzyme (BGAL)^16 from E. coli (APR=SVIIWSL, peptide sequence=[…]) that has a MIC value>100 μg/mL on E. coli strain UZ_TEM104. We evaluated the synergy of the peptides with penicillin G in clinical E. coli isolates carrying the TEM (FIG. 2I) or SHV enzymes (FIG. 2J). […] As a further control, we also performed a checkerboard assay with an E. coli strain that was resistant to the aminoglycoside kanamycin and observed no synergy between this unrelated antibiotic and our peptides (FIG. 2L), in line with the notion that we are inhibiting a beta-lactamase but not the aminoglycoside degrading enzyme. […] The list of strains included some that harbored only TEM or SHV, but others contained additional Ambler Class A (CTX-M or OXA) or Class B (VIM and NDM) beta-lactamases. […] In contrast, the presence of the NDM-type […], that does have a high affinity for Ampicillin and that is completely distinct in sequence and structure from TEM and SHV, seemed to completely prevent the effect of the peptide on the beta-lactam sensitivity of the strains in which it occurred (see also further). As it appeared that TEM3.2 had activity in most isolates tested, we decided to focus further analysis on this peptide. Furthermore, we tested the performance of the TEM3.2 peptide in a checkerboard assay on strains carrying ESBL mutants of TEM, i.e. extended-spectrum mutations that cluster around the active site of the enzyme, and not in the aggregation prone region targeted by the peptide, and as expected from our mode of action, we observed synergy with ampicillin on these strains (FIG. 2M).
(§2) Determination of MIC values using the broth microdilution in the 96-well plate (BD Biosciences, Belgium) according to the EUCAST guideline, which was performed in 96-well polystyrene flat bottom microtiter plates (BD Biosciences). Briefly, a single colony was inoculated into 5 mL Difco™ Mueller Hinton Broth (BD Biosciences Ref 275730) and grown to the end-exponential growth phase in a shaking incubator at 37° C. Cultures were subsequently diluted to an MacFarland (0.5 optical density) then the culture was diluted to reach 10^6 CFU/mL in fresh MHB medium. 50 μl of different concentration of peptides ranging from 128 to 2 μg/mL were serially diluted to the sterile 96-well plate in MHB. 50 μL of the diluted bacteria in MHB were pipetted into 96-well plates to reach the final volume of 100 μL. The bacteria grown with the maximum concentration of carrier and medium were considered as positive and negative controls, respectively. The plates were statically incubated overnight at 37° C. to allow bacterial growth. OD was measured at 590 nm a multipurpose ultraviolet-visible plate reader, and the absorbance of the growth bacteria was measured using absorbance reader. Bacterial growth was also visually inspected and agreed well with the OD reading.

[2] = system: E. coli clinical isolate, β-lactamase SHV-2; CTX-M-55; VIM-1; assay: as above; conditions: isolate 2017 Turkey, UTI, Urine; ampicillin alone
Experimental: as §1, §2

[3] = system: E. coli clinical isolate, β-lactamase TEM-1; assay: as above; conditions: isolates year NA, country NA, ampicillin alone
Experimental: as §1, §2

[4] = system: E. coli clinical isolate, β-lactamase TEM-ESBL; CTX-M-15; NDM-19; assay: as above; conditions: isolate 2017 Qatar, IAI, Abscess; ampicillin alone
Experimental: as §1, §2

[5] = system: E. coli clinical isolate, β-lactamase TEM-ESBL; CTX-M-15; NDM-5; assay: as above; conditions: isolate 2017 Qatar, UTI, Urine; ampicillin alone
Experimental: as §1, §2

[6] = system: E. coli clinical isolate, β-lactamase TEM-ESBL; CTX-M-24; OXA-48; assay: as above; conditions: isolate 2017 Turkey, IAI, Abscess; ampicillin alone
Experimental: as §1, §2

[7] = system: E. coli clinical isolate, β-lactamase TEM-ESBL; CTX-M-27; assay: as above; conditions: isolate 2017 Romania, UTI, Urine; ampicillin alone
Experimental: as §1, §2

[8] = system: E. coli clinical isolate, β-lactamase TEM-ESBL; CTX-M-TYPE; assay: as above; conditions: isolate 2017 France, IAI, Peritoneal Fluid; ampicillin alone
Experimental: as §1, §2

[9] = system: E. coli clinical isolate, β-lactamase TEM-ESBL; assay: as above; conditions: ampicillin alone
Experimental: as §1, §2

E. coli TEM-1 ? = system: E. coli TEM-1 ?
Experimental: (§3) Beta-lactamase clinical samples were collected from University Hospitals Leuven and tested for ESBL production using the disk diffusion method^61. The beta-lactamase reference isolates were purchased from IHMA International Health management associates. Bacterial strains were cultivated in Mueller Hinton Broth (MHB, Difco) at 37° C. Whenever required growth media were supplemented with appropriate antibiotic to the medium or plates (kanamycin 30 μg/mL, L-arabinose 0.5 mg/mL, and IPTG 1 mM/mL). Escherichia coli BL21 (Thermo Fisher Scientific, Belgium) was used for cloning and plasmid amplification. For selection of antibiotic resistance colonies, E. coli carrying plasmids was grown in LB agar plates supplemented with the relevant antibiotic. Bacterial CFU counting was done on blood agar plates (BD Biosciences, Belgium) or MHA agar plates. Species identification and antibiograms for all clinical isolates were performed using MALDI-Tof and VITEK® 2 automated system (BioMérieux, France).

E. coli TEM-104 = system: E. coli TEM-104; for Interpretation: key: S, susceptible; I, intermediate; R, resistant
Experimental: as §3

E. coli TEM-148 = system: E. coli TEM-148; for Interpretation: key: S, susceptible; I, intermediate; R, resistant
Experimental: as §3

E. coli NDM ? a = assay: antimicrobial susceptibility testing, VITEK 2 AST Cards
Experimental: as §3

E. coli NDM ? b = assay: as above
Experimental: as §3

E. coli SH ? (APHA) = assay: as above
Experimental: as §3

E. coli TEM-206 = assay: as above
Experimental: as §3

Work on `CC1(C)S[C@@H]2[C@H](NC(=O)[C@H](N)c3ccccc3)C(=O)N2[C@H]1C(=O)O` [ampicillin, Ampicillin] yielded an MIC ampicillin [1] greater than 64 µg/mL, an MIC ampicillin [2] greater than 64 µg/mL and an MIC ampicillin [3] greater than 64 µg/mL. It also gave an MIC ampicillin [4] greater than 64 µg/mL, an MIC ampicillin [5] greater than 64 µg/mL and an MIC ampicillin [6] greater than 64 µg/mL. The MIC ampicillin [7] was greater than 64 µg/mL, the MIC ampicillin [8] was greater than 64 µg/mL and the MIC ampicillin ([9]; isolate 2016 Germany, UTI, Urine) was greater than 64 µg/mL. For the same compound, the MIC ampicillin ([9]; isolate 2016 Lithuania, UTI, Urine) was greater than 64 µg/mL, the MIC ampicillin ([9]; isolate 2017 Israel, UTI, Urine) was greater than 64 µg/mL and the MIC ampicillin ([9]; isolate 2017 Portugal, RTI, Bronchi) was greater than 64 µg/mL. For the same compound, the MIC ampicillin ([9]; isolates 2016 South Africa, IAI, Peritoneal Fluid) was greater than 64 µg/mL, the Interpretation (E. coli TEM-1 ?) was “R” and the MIC (E. coli TEM-1 ?) was no less than 32 µg/mL. For the same compound, the Interpretation (E. coli TEM-104) was “R”, the MIC (E. coli TEM-104) was no less than 32 µg/mL and the Interpretation (E. coli TEM-148) was “R”. For the same compound, the MIC (E. coli TEM-148) was no less than 32 µg/mL, the Interpretation (E. coli NDM ? a) was “R” and the Interpretation (E. coli NDM ? b) was “R”. The Interpretation (E. coli SH ? (APHA)) was “R”, the Interpretation (E. coli TEM-206) was “R” and the MIC (E. coli TEM-206) was no less than 32 µg/mL.
